Results filed as inconclusive are left out.
System: nude mice, LX-1 lung xenograft intrarenal, tumor weight T/C
Test: NCI In Vivo Anticancer Drug Screen. Data for tumor model Human Lung LX-1 Xenograft (intrarenal inoculation) in NU/NU Swiss (nude) mice
Conditions: endpoint: mean tumor weight change, higher = larger tumour
How it was run: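 Antitumor effect is expressed as a ratio: the mean tumor measurement of the drug-treated group relative to that of the vehicle-dosed control group.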

[1] = dose: 300.0 mg/kg/injection, schedule: Q04DX003 (sc), vehicle: Klucel (hydroxypropylcellulose) (HPC)
[2] = dose: 600.0 mg/kg/injection, schedule: Q04DX003 (sc), vehicle: Klucel (hydroxypropylcellulose) (HPC)
[3] = dose: 1200.0 mg/kg/injection, schedule: Q04DX003 (sc), vehicle: Klucel (hydroxypropylcellulose) (HPC)

Structure (SMILES): CC1(C)OC1CS(=O)c1ccccc1 (stereo unspecified)
- T/C (dose: 600.0 mg/kg/injection, schedule: Q04DX003 (sc), vehicle: saline with Tween-80): 121 % of control
- T/C (dose: 1200.0 mg/kg/injection, schedule: Q04DX003 (sc), vehicle: saline with Tween-80): 89 % of control

Structure (SMILES): CC(C)CC(NC(=O)CF)C(=O)O (stereo unspecified)
- T/C (dose: 5.0 mg/kg/injection, schedule: Q04DX003 (sc), vehicle: saline): 104 % of control
- T/C (dose: 10.0 mg/kg/injection, schedule: Q04DX003 (sc), vehicle: saline): 111 % of control
- T/C (dose: 20.0 mg/kg/injection, schedule: Q04DX003 (sc), vehicle: saline): 70 % of control

Structure (SMILES): C/C=C1\C[C@@H]2C(OC)Nc3cc(O)c(OC)cc3C(=O)N2C1 (stereo partly specified)
- T/C (dose: 0.5 mg/kg/injection, schedule: Q04DX003 (sc), vehicle: saline): 93 % of control
- T/C (dose: 1.0 mg/kg/injection, schedule: Q04DX003 (sc), vehicle: saline): 111 % of control
- T/C (dose: 2.0 mg/kg/injection, schedule: Q04DX003 (sc), vehicle: saline): 107 % of control
- T/C (dose: 4.0 mg/kg/injection, schedule: Q04DX003 (sc), vehicle: saline): 96 % of control

Structure (SMILES): Nc1n[n+](-c2ccc(Cl)cc2)no1
- T/C (dose: 25.0 mg/kg/injection, schedule: Q04DX003 (sc), vehicle: water): 102 % of control
- T/C (dose: 100.0 mg/kg/injection, schedule: Q04DX003 (sc), vehicle: water): 95 % of control

Structure (SMILES): CC(C)NC(=O)OCc1c(COC(=O)NC(C)C)c(-c2ccc(Cl)c(Cl)c2)n2c1CCC2
- T/C (dose: 25.0 mg/kg/injection, schedule: Q01DX010 (sc), vehicle: distilled water + Tween-80): 27 % of control
- T/C (dose: 200.0 mg/kg/injection, schedule: Q04DX003 (sc), vehicle: distilled water + Tween-80): 68 % of control
- T/C (dose: 400.0 mg/kg/injection, schedule: Q04DX003 (sc), vehicle: distilled water + Tween-80): 50 % of control
- T/C (dose: 800.0 mg/kg/injection, schedule: Q04DX003 (sc), vehicle: distilled water + Tween-80): 40 % of control
- T/C (dose: 1600.0 mg/kg/injection, schedule: Q04DX003 (sc), vehicle: distilled water + Tween-80): 90 % of control

Structure (SMILES): Clc1ccc(C2SC=Cc3ccccc32)cc1 (stereo unspecified)
- T/C [1]: 64 % of control
- T/C [2]: 47 % of control
- T/C [3]: 106 % of control

Structure (SMILES): [I][Hg][CH2]C1OCCOC1[CH2][Hg][I] (stereo unspecified)
- T/C (dose: 150.0 mg/kg/injection, schedule: Q04DX003 (sc), vehicle: Klucel (hydroxypropylcellulose) (HPC)): 88 % of control
- T/C [1]: 74 % of control
- T/C [2]: 79 % of control
- T/C [3]: 64 % of control

Structure (SMILES): CCCCCCCCCCCCCCC/C([O-])=N/[N+](C)(C)CC(C)O (stereo unspecified)
- T/C (dose: 100.0 mg/kg/injection, schedule: Q04DX003 (sc), vehicle: Klucel (hydroxypropylcellulose) (HPC)): 66 % of control
- T/C (dose: 200.0 mg/kg/injection, schedule: Q04DX003 (sc), vehicle: Klucel (hydroxypropylcellulose) (HPC)): 54 % of control
- T/C (dose: 400.0 mg/kg/injection, schedule: Q04DX003 (sc), vehicle: Klucel (hydroxypropylcellulose) (HPC)): 103 % of control
- T/C (dose: 800.0 mg/kg/injection, schedule: Q04DX003 (sc), vehicle: Klucel (hydroxypropylcellulose) (HPC)): 77 % of control
- T/C [3]: 77 % of control
- T/C (dose: 2400.0 mg/kg/injection, schedule: Q04DX003 (sc), vehicle: Klucel (hydroxypropylcellulose) (HPC)): 69 % of control

Structure (SMILES): CC(=O)OC1COC(NC(=O)N(CCCl)N=O)C(OC(C)=O)C1OC(C)=O (stereo unspecified)
- T/C (dose: 1.5 mg/kg/injection, schedule: Q01DX010 (sc), vehicle: saline with Tween-80): 83 % of control
- T/C (dose: 3.0 mg/kg/injection, schedule: Q01DX010 (sc), vehicle: saline with Tween-80): 71 % of control
- T/C (dose: 6.0 mg/kg/injection, schedule: Q01DX010 (sc), vehicle: saline with Tween-80): 60 % of control
- T/C (dose: 12.0 mg/kg/injection, schedule: Q01DX010 (sc), vehicle: saline with Tween-80): 72 % of control

Structure (SMILES): Nc1n[nH]c(N)n1
- T/C (dose: 200.0 mg/kg/injection, schedule: Q01DX010 (sc), vehicle: saline): 109 % of control
- T/C (dose: 400.0 mg/kg/injection, schedule: Q01DX010 (sc), vehicle: saline): 106 % of control
- T/C (dose: 800.0 mg/kg/injection, schedule: Q01DX010 (sc), vehicle: saline): 84 % of control

From PubChem BioAssay AID264 (DTP/NCI, 2004)
